One compound from ChEMBL document CHEMBL4811278, “Discovery of novel modulators for the PPARα (peroxisome proliferator activated receptor α): Potential therapies for nonalcoholic fatty liver disease” (Bioorg Med Chem, 2021) can be followed below.

In data set [1] the test system is Mus musculus. In words: Hypolipidemic activity in high fat diet-induced nonalcoholic steatohepatitis C57BL/6J mouse model assessed as reduction in lipid accumulation in liver at 3 mg/kg, po administered once daily for 1 week by Oil Red O staining based assay. The conditions noted are these: time 1.0 weeks. The class given is functional, organism-based.
The target in data set [2] is T1, Peroxisome proliferator-activated receptor alpha (Mus musculus) (UniProt P23204).
T1 sequence (whole entry): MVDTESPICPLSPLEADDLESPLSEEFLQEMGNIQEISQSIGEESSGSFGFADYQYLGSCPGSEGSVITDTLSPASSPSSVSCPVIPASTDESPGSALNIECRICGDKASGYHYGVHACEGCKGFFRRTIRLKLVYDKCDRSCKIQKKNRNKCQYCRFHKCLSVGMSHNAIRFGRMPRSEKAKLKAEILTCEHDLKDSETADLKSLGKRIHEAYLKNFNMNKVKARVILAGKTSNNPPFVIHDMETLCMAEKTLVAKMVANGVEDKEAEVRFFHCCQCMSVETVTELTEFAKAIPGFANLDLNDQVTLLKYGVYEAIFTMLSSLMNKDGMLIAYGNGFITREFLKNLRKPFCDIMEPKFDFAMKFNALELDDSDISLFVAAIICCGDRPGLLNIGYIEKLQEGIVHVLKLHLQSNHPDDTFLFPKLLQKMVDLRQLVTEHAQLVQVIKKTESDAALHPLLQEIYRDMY
In words: In vivo agonist activity at PPARalpha in high fat diet-induced nonalcoholic steatohepatitis C57BL/6J mouse model assessed as increase in LPL mRNA expression in liver administered at 3 mg/kg, po administered once daily for 7 days by quantitative real time PCR analysis. The conditions noted are these: time 7.0 day. In kind it is functional, organism-based. (In general: In qPCR the cycle at which signal appears reflects the starting amount.)

A short description of data set [3]: Toxicity in high fat diet-induced nonalcoholic steatohepatitis C57BL/6J mouse model assessed as increase in plasma glucose level at 3 mg/kg, po administered once daily for 7 days and measured after 4 days. The class given is organism-based. The conditions noted are these: in vivo, 96 h, time 4 day.
Data set [4] relates to Mus musculus. In words: Hypolipidemic activity in high fat diet-induced nonalcoholic steatohepatitis PPARalpha knockout C57BL/6J mouse model assessed as reduction in plasma triglyceride levels at 3 mg/kg, po measured after 72 hrs. The class given is functional, organism-based.
Data set [5] has as its system Mus musculus. In words: Hypolipidemic activity in high fat diet-induced nonalcoholic steatohepatitis C57BL/6J mouse model assessed as reduction in hepatocellular vacuolation at 3 mg/kg, po administered once daily for 1 week by Oil Red O staining based assay. The class given is functional, organism-based. As to conditions: time 1.0 weeks.
Data set [6] deals with T1, Peroxisome proliferator-activated receptor alpha (Mus musculus). Description: In vivo agonist activity at PPARalpha in high fat diet-induced nonalcoholic steatohepatitis C57BL/6J mouse model assessed as increase in ACOX1 mRNA expression in liver administered at 3 mg/kg, po and measured after 24 hrs by quantitative real time PCR analysis. The class given is functional, organism-based.

The test system of data set [7] is Mus musculus. Description: Hypolipidemic activity in high fat diet-induced nonalcoholic steatohepatitis C57BL/6J mouse model assessed as reduction in plasma triglyceride level at 3 mg/kg, po administered once daily via gavage for 7 days. In kind it is functional. As to conditions: 168 h, time 7 day.
Data set [8] addresses T1, Peroxisome proliferator-activated receptor alpha (Mus musculus). Description: In vivo agonist activity at PPARalpha in high fat diet-induced nonalcoholic steatohepatitis C57BL/6J mouse model assessed as transrepression of ApoC3 mRNA expression in liver administered at 3 mg/kg, po administered once daily for 7 days by quantitative real time PCR analysis. In kind it is functional, organism-based. As to conditions: time 7.0 day.

Data set [9] has the same target. Description: In vivo agonist activity at PPARalpha in high fat diet-induced nonalcoholic steatohepatitis C57BL/6J mouse model assessed as increase in Cyp4a3 mRNA expression in liver administered at 3 mg/kg, po and measured after 24 hrs by quantitative real time PCR analysis. The class given is functional, organism-based.
The test system of data set [10] is Mus musculus. In words: Hypolipidemic activity in high fat diet-induced nonalcoholic steatohepatitis C57BL/6J mouse model assessed as reduction in fat droplets in liver at 3 mg/kg, po administered once daily for 1 week by Oil Red O staining based assay. In kind it is functional, organism-based. The conditions noted are these: time 1.0 weeks.
Data set [11] deals with T2, Peroxisome proliferator-activated receptor gamma (Homo sapiens, UniProt P37231).
T2 sequence (P37231 whole entry): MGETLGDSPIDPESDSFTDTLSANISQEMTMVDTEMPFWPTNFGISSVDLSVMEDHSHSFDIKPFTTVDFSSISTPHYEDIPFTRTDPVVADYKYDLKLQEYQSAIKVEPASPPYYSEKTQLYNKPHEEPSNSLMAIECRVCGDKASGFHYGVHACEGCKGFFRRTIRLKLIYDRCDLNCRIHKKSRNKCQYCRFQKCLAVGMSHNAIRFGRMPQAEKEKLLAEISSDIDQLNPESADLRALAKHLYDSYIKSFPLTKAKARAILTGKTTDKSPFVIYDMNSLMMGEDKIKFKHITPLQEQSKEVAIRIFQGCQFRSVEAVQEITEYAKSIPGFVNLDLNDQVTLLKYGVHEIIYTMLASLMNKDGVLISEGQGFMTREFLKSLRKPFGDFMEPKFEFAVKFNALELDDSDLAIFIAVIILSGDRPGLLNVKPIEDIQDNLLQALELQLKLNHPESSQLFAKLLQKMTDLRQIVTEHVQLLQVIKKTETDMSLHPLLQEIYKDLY
In words: Agonist activity at Gal4-fused human PPARgamma expressed in monkey CV1 cells assessed as receptor transactivation incubated for 45 hrs by luciferase reporter gene assay. In kind it is cell-based, CV-1. Background: A reporter such as luciferase makes a cellular process visible.

The target of data set [12] is T1, Peroxisome proliferator-activated receptor alpha (Mus musculus). Description: In vivo agonist activity at PPARalpha in high fat diet-induced nonalcoholic steatohepatitis C57BL/6J mouse model assessed as increase in LPL mRNA expression in liver administered at 3 mg/kg, po and measured after 24 hrs by quantitative real time PCR analysis. In kind it is functional, organism-based.

The nature of data set [13]: Toxicity in C57BL/6J mouse assessed as reduction in body weight measured after 24 hrs. As to conditions: in vivo.

The structures appear in SMILES notation. The source made the active and inactive calls. No cut-off for these calls is given here.

Usually inhibition in vivo stands for the relative decrease from the control value, in per cent. For orientation: EC50 means the midpoint of the concentration-response curve. On to `COc1ccc(Cn2c(CCCc3ccc(OC(C)(C)C(=O)O)cc3)nn(Cc3ccc(C)cc3)c2=O)cc1`, for which the result in [1], in data set [2], in [5], in data set [6], in [8] and in [9] was Active. Further, the outcome in [10] and in [12] was Active. Further, the Activity entry in data set [3] and in data set [13] was “Non-Toxic” throughout. In addition, the result in [4] was inactive. In addition, in data set [7], the inhibition in vivo at 3 mg/kg is no less than 50%. Further, the EC50 in [11] is greater than 10 µM.
